Here are results for two compounds from patent US20250241906A1, “ANABOLIC DRUGS STIMULATING TYPE II COLLAGEN PRODUCTION FROM CHONDROCYTES OR THEIR PROGENITORS” (UNIVERSITY OF CENTRAL FLORIDA RESEARCH FOUNDATION, INC., priority 2022, published 2025).

Experiment [1] relates to cartilage (destabilized meniscus model). The conditions noted are these: cited from earlier work.
The subject of experiment [2] is NF-κB and JAK2/STAT3 signaling. The conditions noted are these: monolayer culture; cited from earlier work.
Experiment [3] has as its target type II collagen promoter (COL2A1-Gaussia luciferase) in primary human chondrocytes. Put plainly: HuCol2gLuc 3D aggregate type II collagen promoter-driven Gaussia luciferase assay. It counts as cell-based. Conditions: HuCol2gLuc. As for the experimental part: Chondrogenic Culture. Human COL2A1-GLuc or uninfected cells were thawed and seeded in growth media on synoviocyte matrix at 6,000 cells/cm^2 and expanded to 90-100% confluence in physioxia. Cells were trypsinized (0.25% Trypsin/EDTA; Corning), resuspended in growth media (for monolayer culture) or chondrogenic differentiation media for 3D aggregates (93.24% High-Glucose DMEM (Gibco), 1% dexamethasone 10^−5M (Sigma), 1% ITS+premix (Becton-Dickinson), 1% Glutamax (Hyclone), 1% 100 mM Sodium Pyruvate (Hyclone), 1% MEM Non-Essential Amino Acids (Hyclone), 0.26% L-Ascorbic Acid Phosphate 50 mM (Wako), 0.5% Fungizone (Life Technologies) with TGF-β1 (Peprotech) and seeded as described below.
Generation and Maintenance of 3D aggregates. To generate 3D aggregates, cells were seeded at 50,000 cells per well (in 96-well cell repellent u-bottom plates, GreinerBio) and then centrifuged at 500 RCF, 5 min. For the initial drug screen, aggregates were cultured in basal chondrogenic media (1 ng/ml TGF-β1) alone, with DMSO (vehicle control) or 5 μM of the drug compounds from the NCI library (Natural Products V, NCI). For candidate validation and subsequent studies aggregates were cultured in basal chondrogenic media (10 ng/ml TGF-β1) alone, with DMSO (vehicle control) or compounds as indicated in the results. Aggregates were cultured for three weeks in physioxic conditions, culture medium was sampled and replaced three times a week with fresh medium. An OT-2 (Opentrons) python coded robotic pipette, programmed at an aspiration height of 2 mm from the bottom of the wells and aspiration rate of 40 μl/s was utilized for addition of compound, cell feeding, and media sampling for luciferase assay. After three weeks, cell aggregates were either fixed in neutral buffered formalin for histology or medium removed and aggregates frozen dry (−20° C.) for biochemical assays.
Luciferase Assay. Conditioned culture medium sampled from aggregates in 96-wells (20 μL/well) was assessed using a stabilized Gaussia Luciferase buffer mix (50 µl/well) for a final concentration of 0.09 M MES, 0.15M Ascorbic Acid, and 4.2 μM Coelenterazine in white 96-well plates. Luminescence was measured in a plate reader (25° C., relative light units (RLU), En Vision plate reader). An OT-2 (Opentrons) python coded robotic pipette was utilized for luciferase buffer addition to white plates (GreinerBio).

The test system of a further experiment is HuPRG4gLuc aggregates. Description: Biochemical assays on HuPRG4gLuc aggregates. It counts as cell-based, human. The conditions noted are these: day 22. As for the experimental part: Biochemical assays. As previously described, frozen samples were digested in papain (0.025 mg/mL papain in 50 mM sodium phosphate, 2 mM EDTA, 2 mM cysteine) overnight. Hoechst dye was used to quantify the DNA content of the digest, with calf thymus DNA (Sigma) as the standard. Samples were read on a plate reader (Ex365, Em460 nm, SpectraMax iD5, Molecular Devices). Dimethylmethylene blue (5 ml of 3.2 mg/mL DMMB dissolved in 200 proof ethanol added to 1L of 40 mM glycine, 40 mM NaCl at pH 1.5) colorimetric assay was used to quantify GAG content of the digest with absorbance readings at 525 nm and 595 nm (correction). Hydroxyproline (HDP) content was measured for total collagen quantification. Papain digested samples were acid hydrolyzed overnight (10:1 vol/vol, 6M HCl, 110° C.) and then dried overnight (70° C.). Copper sulfate (0.15M) and NaOH (2.5M) were added and incubated (50° C., 5 minutes). Oxidation occurred through 10-minute incubation with hydrogen peroxide (6% H2O2, 50° C.). Sulfuric acid was added (1.5M H2SO4) prior to reaction with Ehrlich's reagent (10% w/v 4-dimethylamino benzaldehyde in 60% isopropanol, 26% perchloric acid, 14% MΩ water) for a final incubation (70° C., 16 minutes). Absorbance was read at 505 nm (SpectraMax iD5, Molecular Devices) with hydroxyproline standard curve generated using hydroxyproline (Sigma). […]

The target of experiment [4] is type II collagen promoter (COL2A1-GLuc) in primary rabbit chondrocytes. Put plainly: COL2A1-GLuc primary rabbit chondrocyte 3D aggregate luciferase assay. It counts as cell-based. The conditions noted are these: 0-10 ng/ml. Here is the method: Chondrogenic Culture. Rabbit COL2A1-GLuc were thawed and seeded in growth media at 6000 cells/cm^2 and expanded to 90-100% confluence in physioxia. Cells were trypsinized (0.25% Trypsin/EDTA; Corning), resuspended in basal chondrogenic media (93.24% High-Glucose DMEM (Gibco), 1% dexamethasone 10^−5 M (Sigma), 1% ITS+premix (Becton-Dickinson), 1% Glutamax (Hyclone), 1% 100 mM Sodium Pyruvate (Hyclone), 1% MEM Non-Essential Amino Acids (Hyclone), 0.26% L-Ascorbic Acid Phosphate 50 mM (Wako), 0.5% Fungizone (Life Technologies) with TGF-β1 (Peprotech) and seeded as described below.
Generation and Maintenance of 3D Aggregates. To generate 3D aggregates, cells were seeded at 50,000 cells per well (in 96-well cell repellent u-bottom plates, GreinerBio) and then centrifuged at 500 RCF, 5 min. For the TGF-β1 dose response studies, that serve as positive controls for the reporter cells, aggregates were cultured in basal chondrogenic media and different concentrations of TGF-β1 ranging from 0-10 ng/ml. For the DoE studies, aggregates were cultured in basal chondrogenic media (1 ng/ml TGF-β1) as a control or basal media supplemented with vitamins and minerals (Table 3 and Table 5). Plates were cultured for three weeks in physioxia, media was sampled and replaced three times a week with respective medium. An OT-2 (Opentrons) python coded robotic pipette, programmed at an aspiration height of 2 mm from the bottom of the wells and aspiration rate of 40 μl/s was utilized for media preparation, cell feeding, and media sampling for luciferase assay. After three weeks, cell aggregates were either fixed in neutral buffered formalin for histology or medium removed and aggregates frozen dry (−20° C.) for biochemical assays.
Luciferase Assay. Cell culture medium sampled from the seeded 96-wells (20 μL/well) was assessed using a stabilized Gaussia Luciferase buffer at a final concentration of 0.09 M MES, 0.15M Ascorbic Acid, and 4.2 μM Coelenterazine in white 96-well plates. Luminescence was measured in a plate reader (25° C., relative light units, En Vision plate reader). An OT-2 (Opentrons) python coded robotic pipette was utilized for luciferase buffer addition to white plates (GreinerBio).

For experiment [5], the target named is PRG4 (lubricin) promoter in primary human chondrocytes. Description: HuPRG4gLuc aggregate lubricin promoter-driven Gaussia luciferase assay, TGFβ1 dose response. It counts as cell-based. The conditions noted are these: 0-40 ng/mL. Here is the method: HuPRG4gLuc reporter cell aggregate culture and TGFβ1 dose response. HuPRG4gLuc reporter chondrocytes were thawed from frozen stocks and seeded onto synoviocyte derived matrix coated flasks to expand to confluence (˜5 days, 37° C., 5% CO2 and 5% O2). Upon confluence, cells were trypsinized (0.25% Trypsin/EDTA, 5 min, 37° C.), neutralized with growth media (DMEM/F12 (Gibco) supplemented with 10% FBS (mesenchymal stromal cell selected and 1% penicillin-streptomycin (Hyclone)), then centrifuged (5 min, 500 RCF, room temperature [RT]). Cells were then resuspended in defined chondrogenic media (DMEM-HG 93.24% (Lonza), 1% 10^−5 M dexamethasone (Sigma), 1% ITS+premix (Becton-Dickinson), 1% Glutamax (Hyclone), 1% 100 mM Sodium Pyruvate (Hyclone), 1% MEM Non-Essential Amino Acids (Hyclone), 0.26% 50 mM L-Ascorbic Acid Phosphate (Wako), 0.5% Fungizone (Life Technologies)), and seeded (50,000 cells/well) onto a non-adherent 96-well plate (Greiner Bio), then centrifuged to form cell aggregates (5 min, 500 RCF, RT). […] Media containing the secreted Gaussia luciferase was sampled twice a week for luminescence (section 2.3). […]
Luciferase assessment. As previously described, during the 22-day culture period, luminescence was assessed twice a week. […] Luminescence was read on a plate reader (PerkinElmer EnVision 2104 Multilabel Reader.

`NCCc1ccc(O)c(O)c1` [dopamine]: the “decrease in OARSI score” value in experiment [1] is 50%. In addition, the “NF-κB and JAK2/STAT3 signaling” value in experiment [2] is “inhibition of NF-κB and JAK2/STAT3 signaling”.

In the case of “TGFβ1: transforming growth factor beta 1, known stimulator of chondrogenesis, type II collagen and lubricin [reference compound]”, the EC50 luminescence in experiment [3] (donor 2, day 7) amounted to 0.142 ng/mL; in experiment [3] (donor 2, day 21) it was 1.868 ng/mL; in experiment [3] (first donor, day 8, 0-100 ng/ml), 0.780 ng/mL; in experiment [3] (first donor, day 17), 2.702 ng/mL; in experiment [4] (Day 7), 0.17 ng/mL; in experiment [4] (Day 21) it was 0.10 ng/mL. Besides, the EC50 luminescence is 2.5 ng/mL in experiment [5] (day 10) and 4.2 ng/mL in experiment [5] (day 22). The “EC50 DNA” value in the experiment on HuPRG4gLuc aggregates is 2.8 ng/mL. Also, the “EC50 GAG/DNA” value in the experiment on HuPRG4gLuc aggregates is given as 4.8 ng/mL.
